These results are taken from patent publication US20230133958A1, “COMPOUNDS USEFUL IN MODULATING EGFR AND PI3K” (Mekanistic Therapeutics LLC, priority 2021, published 2023).

Assay [1] deals with OVCAR-4. As to the kind of experiment: NCI COMPARE panel (SRB growth inhibition), OVCAR-4. It counts as cell-based. The settings on record: Homo sapiens; Ovarian Cancer, OVCAR-4, 48 h. On the procedure: (§1) The human tumor cell lines of the cancer screening panel are grown in RPMI 1640 medium containing 5% fetal bovine serum and 2 mM L-glutamine. For a typical screening experiment, cells are inoculated into 96 well microtiter plates in 100 µL at plating densities ranging from 5,000 to 40,000 cells/well depending on the doubling time of individual cell lines. After cell inoculation, the microtiter plates are incubated at 37° C., 5% CO2, 95% air and 100% relative humidity for 24 h prior to addition of experimental drugs.
(§2) After 24 h, two plates of each cell line are fixed in situ with TCA, to represent a measurement of the cell population for each cell line at the time of drug addition (Tz). Experimental drugs are solubilized in dimethyl sulfoxide at 400-fold the desired final maximum test concentration and stored frozen prior to use. […]
(§3) Following drug addition, the plates are incubated for an additional 48 h at 37° C., 5 % CO2, 95% air, and 100% relative humidity. […] Bound stain is subsequently solubilized with 10 mM trizma base, and the absorbance is read on an automated plate reader at a wavelength of 515 nm. […] Using the seven absorbance measurements [time zero, (Tz), control growth, (C), and test growth in the presence of drug at the five concentration levels (Ti)], the percentage growth is calculated at each of the drug concentrations levels. Percentage growth inhibition is calculated as: […]

Assay [2] deals with EGFR (Homo sapiens, UniProt P00533). In words: Z'-LYTE / Adapta biochemical kinase assay, EGFR. To be noted: for inhibition at 0.1 µM: concentration of 100 nM/liter, read-out: Percent Inhibition of target enzymes, EGFR. The source says: (§4) The Z′-LYTE® biochemical assay employs a fluorescence-based, coupled-enzyme format and is based on the differential sensitivity of phosphorylated and non-phosphorylated peptides to proteolytic cleavage. The peptide substrate is labeled with two fluorophores—one at each end—that make up a FRET pair. In the primary reaction, the kinase transfers the gamma-phosphate of ATP to a single tyrosine, serine or threonine residue in a synthetic FRET-peptide. In the secondary reaction, a site-specific protease recognizes and cleaves non-phosphorylated FRET-peptides. Phosphorylation of FRET-peptides suppresses cleavage by the Development Reagent. Cleavage disrupts FRET between the donor (i.e., coumarin) and acceptor (i.e., fluorescein) fluorophores on the FRET-peptide, whereas uncleaved, phosphorylated FRET-peptides maintain FRET. A ratiometric method, which calculates the ratio (the Emission Ratio) of donor emission to acceptor emission after excitation of the donor fluorophore at 400 nm, is used to quantitate reaction progress.
A significant benefit of this ratiometric method for quantitating reaction progress is the elimination of well-to-well variations in FRET-peptide concentration and signal intensities. As a result, the assay yields very high Z′-factor values (>0.7) at a low percent phosphorylation.
Both cleaved and uncleaved FRET-peptides contribute to the fluorescence signals and therefore to the Emission Ratio. The extent of phosphorylation of the FRET-peptide can be calculated from the Emission Ratio. The Emission Ratio will remain low if the FRET-peptide is phosphorylated (i.e., no kinase inhibition) and will be high if the FRET-peptide is non-phosphorylated (i.e., kinase inhibition).
Enzyme: The ADAPTA universal kinase assay is a homogenous, fluorescent based immunoassay for the detection of ADP. In contrast to ATP depletion assays, the ADAPTA assay is extremely sensitive to ADP formation such that a majority of the signal change occurs in the first 10-20% conversion of ATP to ADP. This makes the ADAPTA universal kinase assay ideally suited for use with low activity kinases.
The principle of the ADAPTA universal kinase assay is outlined below. The assay itself can be divided into two phases: a kinase reaction phase, and an ADP detection phase. In the kinase reaction phase, all components required for the kinase reaction are added to the well, and the reaction is allowed to incubate for 60 minutes. After the reaction, a detection solution consisting of a europium labeled anti-ADP antibody, an Alexa Fluor® 647 labeled ADP tracer, and EDTA (to stop the kinase reaction) is added to the assay well. ADP formed by the kinase reaction (in the absence of an inhibitor) will displace the Alexa Fluor® 647 labeled ADP tracer from the antibody, resulting in a decrease in the TR-FRET signal. In the presence of an inhibitor, the amount of ADP formed by the kinase reaction is reduced, and the resulting intact antibody-tracer interaction results in a high TR-FRET signal.
Test Compounds: The Test Compounds are screened in 1% DMSO (final) in the well. For 10 point titrations, 3-fold serial dilutions are conducted from the starting concentration of the customer’s choosing.
Peptide/Kinase Mixtures: All Peptide/Kinase Mixtures are diluted to a 2X working concentration in the appropriate Kinase Buffer.
ATP Solution: All ATP Solutions are diluted to a 4X working concentration in Kinase Buffer (50 mM HEPES pH 7.5, 0.01% BRIJ-35, 10 mM MgCl2,1 mM EGTA). ATP Km apparent is previously determined using a Z′-LYTE® assay.
Development Reagent Solution: The Development Reagent is diluted in Development Buffer.
Assay Protocol: Bar-coded Corning, low volume NBS, black 384-wellplate (Corning Cat. #4514) 1. 2.5 µL - 4X Test Compound or 100 nL 100X plus 2.4 µL kinase buffer. 2. 5 µL - 2X Peptide/Kinase Mixture. 3. 2.5 µL - 4X ATP Solution. 4. 30-second plate shake. 5. 60-minute Kinase Reaction incubation at room temperature. 6. 5 µL - Development Reagent Solution. 7. […]

Assay [3] has as its system BT-549. In words: NCI COMPARE panel (SRB growth inhibition), BT-549. It counts as cell-based. The settings on record: Homo sapiens; Breast Cancer, BT-549, 48 h. On the procedure:
as §1, §2, §3

Assay [4] has as its target HER4 (Homo sapiens, UniProt Q15303). As to the kind of experiment: Z'-LYTE / Adapta biochemical kinase assay, HER4.
Text: as §4, with “Cleavage disrupts FRET between the donor (i.e., coumarin) and acceptor (i.e., fluorescein) fluorophores on the FRET-peptide, whereas uncleaved, phosphorylated FRET-peptides maintain FRET.” left out
A significant benefit of this ratiometric method for quantitating reaction progress is the elimination of well-to-well variations in FRET-peptide concentration and signal intensities. […]
Both cleaved and uncleaved FRET-peptides contribute to the fluorescence signals and therefore to the Emission Ratio. The extent of phosphorylation of the FRET-peptide can be calculated from the Emission Ratio. […]

What is called GI50 is the concentration that inhibits growth by half. High values mean less potent growth inhibition, low ones more potent growth inhibition. A word on the inhibition: it is the drop in the measured response relative to a control, in per cent. The IC50 is the concentration that inhibits the measured activity by half. The low end stands for greater potency, the high end for weaker potency.

EGFR, sequence (P00533 25-1210): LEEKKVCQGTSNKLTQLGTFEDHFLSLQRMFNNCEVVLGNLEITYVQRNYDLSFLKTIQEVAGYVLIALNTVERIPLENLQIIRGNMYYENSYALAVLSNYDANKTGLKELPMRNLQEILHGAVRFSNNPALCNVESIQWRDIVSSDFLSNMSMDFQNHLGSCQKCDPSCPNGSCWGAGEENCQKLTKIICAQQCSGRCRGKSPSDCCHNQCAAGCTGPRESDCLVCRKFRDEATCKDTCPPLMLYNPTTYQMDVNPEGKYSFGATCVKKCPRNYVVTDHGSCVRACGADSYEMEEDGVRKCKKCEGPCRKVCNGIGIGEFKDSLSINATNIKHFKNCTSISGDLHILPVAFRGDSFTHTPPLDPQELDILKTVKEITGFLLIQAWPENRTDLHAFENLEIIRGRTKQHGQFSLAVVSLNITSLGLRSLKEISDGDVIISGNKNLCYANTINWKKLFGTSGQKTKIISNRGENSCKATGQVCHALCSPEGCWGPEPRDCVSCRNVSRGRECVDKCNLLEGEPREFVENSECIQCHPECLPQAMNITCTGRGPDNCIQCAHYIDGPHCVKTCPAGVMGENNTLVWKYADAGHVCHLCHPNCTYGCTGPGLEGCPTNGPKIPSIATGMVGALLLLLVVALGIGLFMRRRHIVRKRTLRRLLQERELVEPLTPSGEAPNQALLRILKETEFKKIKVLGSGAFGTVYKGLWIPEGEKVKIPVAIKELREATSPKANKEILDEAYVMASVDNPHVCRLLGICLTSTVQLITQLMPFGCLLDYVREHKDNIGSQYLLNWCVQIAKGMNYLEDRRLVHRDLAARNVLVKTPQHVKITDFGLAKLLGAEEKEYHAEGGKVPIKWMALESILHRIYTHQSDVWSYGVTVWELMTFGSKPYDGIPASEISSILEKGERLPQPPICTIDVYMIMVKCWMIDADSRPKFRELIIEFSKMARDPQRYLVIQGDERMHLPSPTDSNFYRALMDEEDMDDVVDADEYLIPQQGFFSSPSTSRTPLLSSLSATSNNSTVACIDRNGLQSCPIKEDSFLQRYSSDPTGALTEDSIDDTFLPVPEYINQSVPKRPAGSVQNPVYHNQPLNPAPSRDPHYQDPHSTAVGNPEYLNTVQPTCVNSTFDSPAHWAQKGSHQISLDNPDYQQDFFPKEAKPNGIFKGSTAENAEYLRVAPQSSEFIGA
HER4, sequence (Q15303 26-1308): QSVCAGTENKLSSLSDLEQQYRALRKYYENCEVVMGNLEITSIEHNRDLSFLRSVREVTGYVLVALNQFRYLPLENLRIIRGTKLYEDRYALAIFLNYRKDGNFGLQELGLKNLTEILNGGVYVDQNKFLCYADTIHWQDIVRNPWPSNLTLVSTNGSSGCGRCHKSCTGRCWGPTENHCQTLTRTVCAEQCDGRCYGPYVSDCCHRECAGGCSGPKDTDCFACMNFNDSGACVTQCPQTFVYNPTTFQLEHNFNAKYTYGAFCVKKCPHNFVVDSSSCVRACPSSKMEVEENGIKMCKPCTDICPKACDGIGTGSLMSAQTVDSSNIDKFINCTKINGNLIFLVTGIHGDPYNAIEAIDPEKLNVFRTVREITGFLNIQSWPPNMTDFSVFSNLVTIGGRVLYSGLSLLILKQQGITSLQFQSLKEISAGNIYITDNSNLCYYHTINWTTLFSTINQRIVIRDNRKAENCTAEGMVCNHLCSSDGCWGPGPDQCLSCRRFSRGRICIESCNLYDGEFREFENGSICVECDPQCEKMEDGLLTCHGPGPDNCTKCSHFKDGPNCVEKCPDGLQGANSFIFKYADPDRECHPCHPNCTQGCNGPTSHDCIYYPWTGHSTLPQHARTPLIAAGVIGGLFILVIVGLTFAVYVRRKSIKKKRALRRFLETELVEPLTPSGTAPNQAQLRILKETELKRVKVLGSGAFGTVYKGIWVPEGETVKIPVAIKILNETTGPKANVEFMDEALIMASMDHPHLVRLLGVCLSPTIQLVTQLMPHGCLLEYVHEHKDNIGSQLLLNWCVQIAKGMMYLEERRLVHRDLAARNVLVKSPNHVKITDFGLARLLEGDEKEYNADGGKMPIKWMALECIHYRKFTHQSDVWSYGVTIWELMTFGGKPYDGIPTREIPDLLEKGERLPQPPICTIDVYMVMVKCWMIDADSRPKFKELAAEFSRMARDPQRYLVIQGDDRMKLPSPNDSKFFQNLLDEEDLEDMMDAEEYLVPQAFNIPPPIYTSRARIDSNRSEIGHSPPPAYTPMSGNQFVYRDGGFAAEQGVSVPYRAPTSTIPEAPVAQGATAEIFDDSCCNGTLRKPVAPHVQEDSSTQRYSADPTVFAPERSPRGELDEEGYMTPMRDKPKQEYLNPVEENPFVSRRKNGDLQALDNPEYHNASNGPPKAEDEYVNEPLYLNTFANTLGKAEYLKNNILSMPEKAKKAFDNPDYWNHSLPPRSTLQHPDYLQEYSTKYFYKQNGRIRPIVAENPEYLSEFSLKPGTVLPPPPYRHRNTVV

As for `CS(=O)(=O)Nc1cc(-c2ccc3ncc(C#N)c(Nc4cccc(Cl)c4F)c3c2)cnc1Cl` [Compound 10, N-[2-chloro-5-[4-(3-chloro-2-fluoro-anilino)-3-cyano-6-quinolyl]-3-pyridyl]methanesulfonamide], the 50% growth inhibitory concentration (GI50) is more than 250 nM in assay [1] and not above 75 nM in assay [3]. Also, the inhibition at 0.1 µM in assay [2] is more than 90%.

In the case of `CS(=O)(=O)Nc1cc(-c2ccc3ncnc(Nc4cccc(Cl)c4F)c3c2)cnc1Cl` [Compound 6, N-[2-chloro-5-[4-(3-chloro-2-fluoro-anilino)quinazolin-6-yl]-3-pyridyl] methanesulfonamide], the concentration for 50% growth inhibition (GI50) is more than 250 nM in assay [1] and 75 to 125 nM in assay [3]. Moreover, the results for the half-inhibitory concentration (IC50) in assay [2] (EGFR) and in assay [4] were not above 2 nM and more than 200 nM, respectively. Also, the inhibition at 0.1 µM in assay [2] is more than 90%.
